Bridge positions count the residues as written; N and C are the ends. Square brackets hold non-standard residues; d marks the D form. Ends that are not written are not given here. Peptide text beside a SMILES is read from it. pGlu = O=C1CC[C@@H](C(=O)O)N1
How the values were obtained:
[1] = target: T1, CG16752 (Drosophila melanogaster, UniProt Q8SWR3); test: CHO cell aequorin luminescence (Ca2+) assay; assay type: cell-based; conditions: for Ca^2+ responses: 0.1µM or 10µM SP
T1 construct: The relevant GPCRs are expressed from constructs prepared by cloning the entire open reading frame in a pcDNA3.1(+) vector; expressed in transfected cells; host or cells: CHO-K1
T1 sequence (Q8SWR3 1-435): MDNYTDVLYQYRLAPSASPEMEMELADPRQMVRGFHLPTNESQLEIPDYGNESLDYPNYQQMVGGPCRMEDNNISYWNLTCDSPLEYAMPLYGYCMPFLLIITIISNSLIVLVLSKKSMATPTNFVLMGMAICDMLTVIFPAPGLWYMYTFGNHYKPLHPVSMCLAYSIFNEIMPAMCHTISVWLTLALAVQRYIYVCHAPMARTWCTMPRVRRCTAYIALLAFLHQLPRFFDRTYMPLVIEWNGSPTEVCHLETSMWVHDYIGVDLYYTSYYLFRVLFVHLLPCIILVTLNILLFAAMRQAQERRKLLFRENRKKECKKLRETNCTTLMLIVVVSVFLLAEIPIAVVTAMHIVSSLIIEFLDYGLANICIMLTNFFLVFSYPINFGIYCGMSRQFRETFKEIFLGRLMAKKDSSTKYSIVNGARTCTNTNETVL

[2] = system: D. pseudoobscura SPR; test: CHO cell aequorin luminescence assay, insect SPR orthologue; assay type: cell-based; conditions: CHO cells expressing SPR, aequorin and Gαqi
[3] = system: A. aegypti SPR; test: as above; assay type: cell-based, Aedes aegypti; conditions: CHO cells expressing SPR, aequorin and Gαqi
[4] = system: B. mori SPR; test: as above; assay type: cell-based, Bombyx mori; conditions: CHO cells expressing SPR, aequorin and Gαqi
[5] = target: T2, CG2114 (Drosophila melanogaster, UniProt Q9VZW5); test: CHO cell aequorin luminescence assay, related GPCR; assay type: cell-based; conditions: 10µM peptide; CHO cells expressing CG2114 and aequorin
T2 construct: The relevant GPCRs are expressed from constructs prepared by cloning the entire open reading frame in a pcDNA3.1(+) vector; expressed in transfected cells; host or cells: CHO-K1
T2 sequence (Q9VZW5 1-549): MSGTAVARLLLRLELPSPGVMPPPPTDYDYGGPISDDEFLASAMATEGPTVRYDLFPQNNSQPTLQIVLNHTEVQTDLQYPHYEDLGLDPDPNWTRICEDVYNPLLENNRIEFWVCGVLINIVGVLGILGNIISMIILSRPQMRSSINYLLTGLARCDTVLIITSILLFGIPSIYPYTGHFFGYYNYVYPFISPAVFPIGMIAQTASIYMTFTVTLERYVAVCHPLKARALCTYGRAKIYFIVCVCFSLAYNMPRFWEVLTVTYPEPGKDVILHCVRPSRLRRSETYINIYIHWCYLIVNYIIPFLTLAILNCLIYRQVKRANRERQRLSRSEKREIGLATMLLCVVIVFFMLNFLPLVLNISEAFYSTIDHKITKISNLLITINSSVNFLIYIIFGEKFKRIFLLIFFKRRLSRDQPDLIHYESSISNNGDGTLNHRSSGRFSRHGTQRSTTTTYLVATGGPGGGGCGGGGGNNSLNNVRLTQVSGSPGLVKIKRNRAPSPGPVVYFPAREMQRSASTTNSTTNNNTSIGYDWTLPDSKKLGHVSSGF

[6] = system: CG8784; test: CHO cell aequorin luminescence assay, related GPCR; assay type: cell-based, Drosophila; conditions: 10µM peptide; CHO cells expressing CG8784 and aequorin
[7] = system: virgin females; test: Receptivity of virgin females after SP injection; assay type: in vivo, Drosophila; conditions: assayed 5 h after injection
[8] = system: Helicoverpa armigera; conditions: Fan et al., 1999 and 2000; cited from earlier work
[9] = Saudan et al., 2002; cited from earlier work
[10] = target: T3, Drosophila melanogaster sex peptide receptor (SPR), GPCR encoded by CG16752 (Drosophila melanogaster, UniProt Q8SWR3 1-435); test: cell-based or functional assay
T3 sequence: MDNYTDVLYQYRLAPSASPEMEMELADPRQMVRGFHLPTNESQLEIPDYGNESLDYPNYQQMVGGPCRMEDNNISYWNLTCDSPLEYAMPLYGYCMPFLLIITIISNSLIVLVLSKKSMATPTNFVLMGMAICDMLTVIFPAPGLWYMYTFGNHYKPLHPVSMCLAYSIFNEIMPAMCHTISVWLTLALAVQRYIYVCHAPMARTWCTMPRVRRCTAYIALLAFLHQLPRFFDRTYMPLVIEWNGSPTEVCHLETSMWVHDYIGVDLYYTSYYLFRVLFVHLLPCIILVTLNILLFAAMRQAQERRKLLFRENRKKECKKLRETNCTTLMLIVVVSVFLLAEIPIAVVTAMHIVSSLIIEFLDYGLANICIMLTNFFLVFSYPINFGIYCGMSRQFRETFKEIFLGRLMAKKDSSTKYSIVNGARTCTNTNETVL

[11] = target: T4, SPR of Drosophila pseudoobscura (Drosophila pseudoobscura); test: cell-based or functional assay
T4 chain: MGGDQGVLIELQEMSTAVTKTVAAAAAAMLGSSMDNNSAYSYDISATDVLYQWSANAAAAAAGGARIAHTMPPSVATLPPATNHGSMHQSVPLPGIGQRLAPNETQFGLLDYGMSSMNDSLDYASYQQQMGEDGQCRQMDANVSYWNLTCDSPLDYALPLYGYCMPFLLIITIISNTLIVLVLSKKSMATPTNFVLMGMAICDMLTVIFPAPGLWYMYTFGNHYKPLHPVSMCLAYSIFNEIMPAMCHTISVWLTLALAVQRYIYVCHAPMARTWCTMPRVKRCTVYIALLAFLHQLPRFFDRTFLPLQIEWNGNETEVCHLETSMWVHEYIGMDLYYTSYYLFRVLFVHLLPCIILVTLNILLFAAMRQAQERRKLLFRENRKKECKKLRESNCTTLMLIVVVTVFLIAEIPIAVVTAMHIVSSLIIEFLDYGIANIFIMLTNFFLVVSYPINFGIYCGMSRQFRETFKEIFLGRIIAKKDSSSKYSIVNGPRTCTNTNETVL

[12] = target: T5, SPR of Aedes aegypti (Aedes aegypti); test: cell-based or functional assay
T5 chain: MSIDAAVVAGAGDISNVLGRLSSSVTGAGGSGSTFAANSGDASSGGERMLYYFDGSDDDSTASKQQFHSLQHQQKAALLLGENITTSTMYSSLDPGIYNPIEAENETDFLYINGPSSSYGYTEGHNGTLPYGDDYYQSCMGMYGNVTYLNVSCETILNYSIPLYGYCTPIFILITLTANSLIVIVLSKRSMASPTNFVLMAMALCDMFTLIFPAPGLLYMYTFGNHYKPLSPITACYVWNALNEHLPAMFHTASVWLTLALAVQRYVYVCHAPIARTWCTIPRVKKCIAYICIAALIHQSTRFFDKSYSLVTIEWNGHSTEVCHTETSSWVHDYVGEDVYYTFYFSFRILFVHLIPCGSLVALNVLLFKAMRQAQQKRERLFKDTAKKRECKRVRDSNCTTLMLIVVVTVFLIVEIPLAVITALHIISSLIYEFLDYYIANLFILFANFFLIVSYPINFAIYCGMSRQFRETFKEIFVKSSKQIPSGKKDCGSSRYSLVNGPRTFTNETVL

[13] = target: T6, SPR of Bombyx mori (Bombyx mori); test: cell-based or functional assay
T6 chain: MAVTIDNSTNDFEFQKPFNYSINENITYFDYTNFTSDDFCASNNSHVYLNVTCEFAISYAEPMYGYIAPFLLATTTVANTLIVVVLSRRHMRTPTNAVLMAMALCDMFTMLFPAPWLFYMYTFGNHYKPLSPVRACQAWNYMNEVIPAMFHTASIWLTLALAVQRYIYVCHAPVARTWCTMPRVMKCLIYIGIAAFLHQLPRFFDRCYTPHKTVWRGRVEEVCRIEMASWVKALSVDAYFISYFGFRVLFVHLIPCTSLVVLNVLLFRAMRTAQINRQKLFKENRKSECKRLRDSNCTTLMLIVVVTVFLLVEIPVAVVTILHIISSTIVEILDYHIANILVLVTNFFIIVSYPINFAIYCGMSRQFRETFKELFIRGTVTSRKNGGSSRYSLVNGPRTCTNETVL

## CC[C@H](C)[C@H](NC(=O)[C@@H]1C[C@@H](O)CN1C(=O)[C@H](Cc1ccccc1)NC(=O)[C@H](CCCCN)NC(=O)[C@@H](NC(=O)[C@@H]1C[C@@H](O)CN1C(=O)[C@H](CCCCN)NC(=O)[C@H](CCCNC(=N)N)NC(=O)[C@H](CC(N)=O)NC(=O)[C@H](Cc1c[nH]c2ccccc12)NC(=O)[C@@H]1CCCN1C(=O)[C@H](Cc1c[nH]c2ccccc12)NC(=O)[C@H](CCC(=O)O)NC(=O)[C@@H](N)Cc1c[nH]c2ccccc12)[C@@H](C)O)C(=O)N1C[C@H](O)C[C@H]1C(=O)N[C@@H](CO)C(=O)N1C[C@H](O)C[C@H]1C(=O)N[C@@H](CC(N)=O)C(=O)N1C[C@H](O)C[C@H]1C(=O)N[C@@H](CCCNC(=N)N)C(=O)N[C@@H](CC(=O)O)C(=O)N[C@@H](CCCCN)C(=O)N[C@@H](Cc1c[nH]c2ccccc12)C(=O)N[C@H]1CSSC[C@@H](C(=O)O)NC(=O)[C@H](CCCNC(=N)N)NC(=O)CNC(=O)CNC(=O)[C@H](Cc2c[nH]c3ccccc23)NC(=O)[C@H](C)NC(=O)[C@@H]2CCCN2C(=O)CNC(=O)[C@H](CC(C)C)NC(=O)[C@H](CC(N)=O)NC(=O)[C@H](CC(C)C)NC(=O)[C@H](CCCNC(=N)N)NC1=O [SP]
[1]; cotransfected chimeric G protein Gαqi
  Ca^2+ responses: robust Ca^2+ responses
[1]; cotransfected chimeric G protein Gαqo
  Ca^2+ responses: robust Ca^2+ responses
[1]; cotransfected chimeric G protein Gαqs
  Ca^2+ responses: not Gαqs
[1]; no additional G protein (endogenous Gαq/11), concentrations as high as 10µM
  luminescence response: very weak response
[2]
  EC50: 4.3 nM
[3]
  EC50: 167 nM
[4]
  EC50: 63 nM
[5]
  sensitivity to peptide ligand: not to SP
[6]
  sensitivity to peptide ligand: not to SP
[7]; Df(1)Exel6234 homozygous virgins, 12pmol SP injected
  receptivity to naive males: remaine receptive
[7]; wild-type virgins, 12pmol SP injected into haemolymph
  receptivity to naive males: unreceptive
[8]
  post-mating responses: can induce post-mating responses

## CC[C@H](C)[C@H](NC(=O)[C@H](Cc1c[nH]c2ccccc12)NC(=O)[C@H](CCC(=O)O)NC(=O)[C@@H](NC(=O)[C@H](CC(=O)O)NC(=O)[C@H](CC(N)=O)NC(=O)[C@H](CCCNC(=N)N)NC(=O)[C@H](CC(=O)O)NC(=O)[C@@H]1CCC(=O)N1)[C@@H](C)O)C(=O)N[C@@H](CCC(N)=O)C(=O)N[C@@H](CO)C(=O)N[C@@H](CCC(N)=O)C(=O)N[C@@H](CCCCN)C(=O)N[C@@H](CC(=O)O)C(=O)N[C@@H](CCCNC(=N)N)C(=O)N[C@@H](CCC(=O)O)C(=O)N[C@@H](CCCCN)C(=O)N[C@@H](Cc1c[nH]c2ccccc12)C(=O)N[C@H]1CSSC[C@@H](C(=O)O)NC(=O)[C@H](CCCNC(=N)N)NC(=O)CNC(=O)CNC(=O)[C@H](CC(C)C)NC(=O)[C@H](Cc2ccc(O)cc2)NC(=O)[C@@H]2CCCN2C(=O)CNC(=O)[C@H](CC(C)C)NC(=O)[C@H](CC(N)=O)NC(=O)[C@H](CC(C)C)NC(=O)[C@H](CCCNC(=N)N)NC1=O [DUP99B] ([pGlu]DRNDTEWIQSQKDREKWCRLNLGPYLGGRC-OH; disulfide 19-31)
[2]
  response of receptor to peptide: lower sensitivity
[3]
  response of receptor to peptide: lower sensitivity
[4]
  response of receptor to peptide: lower sensitivity
[9]
  post-mating responses: can induce the same post-mating responses as SP

## pQLQSNGEPAYRVRTPRLa ([pGlu]LQSNGEPAYRVRTPRL-NH2; SMILES CC(C)C[C@H](NC(=O)[C@H](CCCNC(=N)N)NC(=O)[C@@H]1CCCN1C(=O)[C@@H](NC(=O)[C@H](CCCNC(=N)N)NC(=O)[C@@H](NC(=O)[C@H](CCCNC(=N)N)NC(=O)[C@H](Cc1ccc(O)cc1)NC(=O)[C@H](C)NC(=O)[C@@H]1CCCN1C(=O)[C@H](CCC(=O)O)NC(=O)CNC(=O)[C@H](CC(N)=O)NC(=O)[C@H](CO)NC(=O)[C@H](CCC(N)=O)NC(=O)[C@H](CC(C)C)NC(=O)[C@@H]1CCC(=O)N1)C(C)C)[C@@H](C)O)C(N)=O) [hugin-γ, ligand of CG8784]
[1]; 10µM peptide, co-transfected with Gαqi
  activation of receptor by peptide ligand: Neither of these peptides activates
[6]
  sensitivity to peptide ligand: confer sensitivity

B1: synthetic sex peptide (SP) of Drosophila melanogaster (peptide)
peptide: WEWPWNRKPTKFPIPSPNPRDKWCRLNLGPAWGGRC
modifications: disulfide 24-36 (inferred); also: hydroxyproline at some P residues, places not given here
[10]
  EC50, dose-response of luminescence in CHO cells expressing CG16752, aequorin and Gαqi: 1.3 nM
[11]
  EC50, dose-response of luminescence in CHO cells expressing the SPR, aequorin and Gαqi: 4.3 nM
[12]
  EC50, dose-response of luminescence in CHO cells expressing the SPR, aequorin and Gαqi: 167 nM
[13]
  EC50, dose-response of luminescence in CHO cells expressing the SPR, aequorin and Gαqi: 63 nM

## [pGlu]DRNDTEWIQSQKDREKWCRLNLGPYLGGRC (disulfide 19-31 (inferred)) [synthetic DUP99B]
[10]
  EC50, dose-response of luminescence in CHO cells expressing CG16752, aequorin and Gαqi: 7.3 nM

— patent EP2067787A1, “Method for controlling insect populations” (Boehringer Ingelheim International GmbH, priority 2007, dated 2009)
